# Assay results from PubChem BioAssay AID330 (DTP/NCI, 2004).
# “And” between values parts separate entries of the source, which are not always exact repeats. Equal values may be shown once. Toxic doses and inconclusive results are not listed.
# Test system: P388 leukemia ip, CD2F1 mice, survival T/C
# Assay: NCI In Vivo Anticancer Drug Screen. Data for tumor model P388 Leukemia (intraperitoneal) in CD2F1 (CDF1) mice
# Settings: endpoint: median survival time, higher = longer survival
# Outline: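 Mice carrying the transplanted tumor received test compound or vehicle. Survival was recorded in each group, and the value is the treated-group measurement divided by that of the vehicle-treated control group.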
# [1] = dose: 25.0 mg/kg/injection, schedule: Q04DX003 (ip), vehicle: saline
# [2] = dose: 50.0 mg/kg/injection, schedule: Q01DX009 (ip), vehicle: saline
# [3] = dose: 100.0 mg/kg/injection, schedule: Q01DX009 (ip), vehicle: saline
# [4] = dose: 200.0 mg/kg/injection, schedule: Q01DX009 (ip), vehicle: saline
# [5] = dose: 50.0 mg/kg/injection, schedule: Q01DX005 (ip), vehicle: Klucel (hydroxypropylcellulose) (HPC)
# [6] = dose: 100.0 mg/kg/injection, schedule: Q01DX005 (ip), vehicle: Klucel (hydroxypropylcellulose) (HPC)
# [7] = dose: 200.0 mg/kg/injection, schedule: Q01DX005 (ip), vehicle: Klucel (hydroxypropylcellulose) (HPC)
compound,measurement,setting,value
C=C(C)C12CC(C)C34OC(/C=C/C=C/CCCCC)(OC1C3C1OC1(CO)C(O)C1(O)C(=O)C(C)=CC14)O2 (stereo not drawn),T/C,"dose: 0.03 mg/kg/injection, schedule: Q01DX009 (ip), vehicle: distilled water + alcohol",96 % of control
same,T/C,"dose: 0.06 mg/kg/injection, schedule: Q01DX009 (ip), vehicle: distilled water + alcohol",102 % of control
same,T/C,"dose: 0.12 mg/kg/injection, schedule: Q01DX009 (ip), vehicle: distilled water + alcohol",98 % of control
same,T/C,"dose: 0.25 mg/kg/injection, schedule: Q01DX009 (ip), vehicle: distilled water + alcohol",106 % of control
same,T/C,"dose: 0.5 mg/kg/injection, schedule: Q01DX009 (ip), vehicle: distilled water + alcohol",98 % of control
same,T/C,"dose: 1.0 mg/kg/injection, schedule: Q01DX009 (ip), vehicle: distilled water + alcohol",108 % of control
O=CN1CCCc2cc(C(=O)O)ccc21,T/C,"dose: 50.0 mg/kg/injection, schedule: Q01DX001 (ip), vehicle: saline sonified",100 % of control
same,T/C,"dose: 100.0 mg/kg/injection, schedule: Q01DX001 (ip), vehicle: saline sonified",100 % of control
same,T/C,"dose: 200.0 mg/kg/injection, schedule: Q01DX001 (ip), vehicle: saline sonified",105 % of control
NNC(=O)CC(N)=O,T/C,"dose: 12.5 mg/kg/injection, schedule: Q04DX003 (ip), vehicle: saline",95 % of control
same,T/C,[1],95 % of control
same,T/C,"dose: 50.0 mg/kg/injection, schedule: Q04DX003 (ip), vehicle: saline",96 % of control
same,T/C,"dose: 200.0 mg/kg/injection, schedule: Q04DX003 (ip), vehicle: saline",104 % of control
same,T/C,"dose: 400.0 mg/kg/injection, schedule: Q04DX003 (ip), vehicle: saline",100 % of control
CCCCN(CCCC)C(=N)c1ccc(OC)c(OC)c1,T/C,"dose: 6.25 mg/kg/injection, schedule: Q01DX005 (ip), vehicle: saline",98 % of control
same,T/C,"dose: 12.5 mg/kg/injection, schedule: Q01DX005 (ip), vehicle: saline",100 % of control
same,T/C,"dose: 25.0 mg/kg/injection, schedule: Q01DX005 (ip), vehicle: saline",100 % of control
CCOCC(=O)OC,T/C,[2],97 % of control
same,T/C,[3],95 % of control
same,T/C,[4],100 % of control
COc1cccc2c1C(=O)c1c(O)c3c(c(O)c1C2=O)C[C@@](O)(C(=O)CO)C[C@@H]3OC1CC(NC(=O)C(N)CC(C)C)C(O)C(C)O1 (stereo partly drawn),T/C,"dose: 3.12 mg/kg/injection, schedule: Q04DX003 (ip), vehicle: saline",105 % of control
same,T/C,"dose: 6.25 mg/kg/injection, schedule: Q04DX003 (ip), vehicle: saline",118 % of control
same,T/C,[1],150 % of control
COc1ccc(N2C(=O)c3ccc4c5ccc6c7c(ccc(c8ccc(c3c48)C2=O)c75)C(=O)N(C)C6=O)cc1,T/C,[5],97 % of control
same,T/C,[6],98 % of control
same,T/C,[7],105 % of control
Cc1nnc(NC(=O)CCl)s1,T/C,"dose: 25.0 mg/kg/injection, schedule: Q01DX009 (ip), vehicle: saline with Tween-80",95 % of control
same,T/C,"dose: 50.0 mg/kg/injection, schedule: Q01DX009 (ip), vehicle: saline with Tween-80",100 % of control
same,T/C,"dose: 100.0 mg/kg/injection, schedule: Q01DX009 (ip), vehicle: saline with Tween-80",104 % of control
CC1(C)CC(=O)C(CC2=C(N)CC(C)(C)CC2=O)=C(N)C1,T/C,"dose: 25.0 mg/kg/injection, schedule: Q04DX003 (ip), vehicle: Klucel (hydroxypropylcellulose) (HPC)",95 % of control
same,T/C,"dose: 50.0 mg/kg/injection, schedule: Q04DX003 (ip), vehicle: Klucel (hydroxypropylcellulose) (HPC)",101 % of control
same,T/C,"dose: 100.0 mg/kg/injection, schedule: Q04DX003 (ip), vehicle: Klucel (hydroxypropylcellulose) (HPC)",94 % of control
same,T/C,"dose: 200.0 mg/kg/injection, schedule: Q04DX003 (ip), vehicle: Klucel (hydroxypropylcellulose) (HPC)",95 % of control
CN(C)c1ccc(/C=C2\C=Cc3ccccc32)cc1,T/C,"dose: 100.0 mg/kg/injection, schedule: Q04DX003 (ip), vehicle: saline with Tween-80",109 % of control
same,T/C,"dose: 200.0 mg/kg/injection, schedule: Q04DX003 (ip), vehicle: saline with Tween-80",90 % of control
same,T/C,"dose: 400.0 mg/kg/injection, schedule: Q04DX003 (ip), vehicle: saline with Tween-80",90 % of control
COc1cccc2c1C(=O)c1c(O)c3c(c(O)c1C2=O)C[C@H](O)C[C@@H]3OC1CC(N)C(O)C(C)O1 (stereo partly drawn),T/C,"dose: 0.5 mg/kg/injection, schedule: Q04DX003 (ip), vehicle: saline",105 % of control
same,T/C,"dose: 1.0 mg/kg/injection, schedule: Q04DX003 (ip), vehicle: saline",114 % of control
same,T/C,"dose: 1.56 mg/kg/injection, schedule: Q01DX009 (ip), vehicle: water",155 % of control and 161 % of control
same,T/C,"dose: 2.0 mg/kg/injection, schedule: Q04DX003 (ip), vehicle: saline",107 % of control
same,T/C,"dose: 3.13 mg/kg/injection, schedule: Q01DX009 (ip), vehicle: water",174 % of control
same,T/C,"dose: 4.0 mg/kg/injection, schedule: Q04DX003 (ip), vehicle: saline",117 % of control
same,T/C,"dose: 4.7 mg/kg/injection, schedule: Q04DX003 (ip), vehicle: water",109 % of control
same,T/C,"dose: 6.25 mg/kg/injection, schedule: Q01DX009 (ip), vehicle: water",180 % of control and 209 % of control
same,T/C,"dose: 8.0 mg/kg/injection, schedule: Q04DX003 (ip), vehicle: saline",108 % of control
same,T/C,"dose: 12.5 mg/kg/injection, schedule: Q01DX009 (ip), vehicle: water",228 % of control and 236 % of control
same,T/C,"dose: 64.0 mg/kg/injection, schedule: Q04DX003 (ip), vehicle: saline",169 % of control
same,T/C,"dose: 75.0 mg/kg/injection, schedule: Q04DX003 (ip), vehicle: water",181 % of control
same,T/C,"dose: 113.0 mg/kg/injection, schedule: Q04DX003 (ip), vehicle: water",116 % of control
same,T/C,"dose: 128.0 mg/kg/injection, schedule: Q04DX003 (ip), vehicle: saline",100 % of control
Nc1ncnc2c1ncn2Cc1cccnc1,T/C,[5],98 % of control
same,T/C,[6],98 % of control
same,T/C,[7],100 % of control
NC(=O)CC(=O)O,T/C,[2],96 % of control
same,T/C,[3],91 % of control
same,T/C,[4],104 % of control
CCc1cccc(C)c1NC(=O)/C(Cl)=C(\Cl)C(=O)O,T/C,"dose: 60.0 mg/kg/injection, schedule: Q01DX005 (ip), vehicle: saline with Tween-80",104 % of control
same,T/C,"dose: 120.0 mg/kg/injection, schedule: Q01DX005 (ip), vehicle: saline with Tween-80",106 % of control
